Where “and” joins values, the source holds several entries; their conditions need not be identical. Equal entries are not always repeated.
Assays:
RXRγ = biological target: T1, RXRγ (Homo sapiens, UniProt P48443); assay: Gal4-hybrid reporter gene assay, RXRγ; assay type: cell-based; conditions: for RXRγ activity at single concentration: 30 μM
T1 construct: pFA-CMV-hRXRγ-LBD; expressed in transfected cells; host or cells: HEK293T
T1 sequence (P48443 231-459 limits assumed): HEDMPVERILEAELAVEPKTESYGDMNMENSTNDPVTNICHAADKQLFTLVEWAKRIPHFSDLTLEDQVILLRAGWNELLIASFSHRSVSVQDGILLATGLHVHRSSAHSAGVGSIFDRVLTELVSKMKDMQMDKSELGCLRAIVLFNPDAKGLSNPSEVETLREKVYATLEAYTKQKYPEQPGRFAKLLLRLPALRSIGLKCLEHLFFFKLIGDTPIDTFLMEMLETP
Protocol: (§1) modified Eagle’s medium (DMEM), high glucose supplemented with 10% fetal calf serum (FCS), sodium pyruvate (1 mM), penicillin (100 U/mL), and streptomycin (100 μg/mL) at 37 °C and 5% CO2 and seeded in 96-well plates (3×10^4 cells/well). After 24 h, the medium was changed to Opti-MEM without supplements, and the cells were transiently transfected using Lipofectamine LTX reagent (Invitrogen) according to the manufacturer’s protocol. Five hours after transfection, the cells were incubated with the test compounds in Opti-MEM supplemented with penicillin (100 U/mL), streptomycin (100 μg/mL), and 0.1% DMSO for 15 h before luciferase activity was measured using the Dual -Glo Luciferase Assay System (Promega) according to the manufacturer’s protocol on a Tecan Spark l uminometer (Tecan Deutschland GmbH, Germany). Firefly luminescence was divided by Renilla luminescence and multiplied by 1000, resulting in relative light units (RLU) to normalize for transfection efficiency and cell growth. Fold activation was obtained by dividing the mean RLU of a sample by the mean RLU of the untreated control. All samples were tested in at least three biologically independent experiments in duplicates. For dose –response curve fitting and calculation of EC50 values, the equation “[Agonist] vs. response – Variable slope (four parameters)” was used in GraphPad Prism (version 5.04, GraphPad Software, La Jolla, CA, USA). […] (10 μM, NR4A) and bexarotene (1 µM, NR2B) served as the positive control. […]
(§2) 150 μM in the same buffer containing 2-4% DMSO) in 21–26 injections (1 × 1 μL and 20 × 4 to 25 × 4 μL) with an injection interval of 120 s. As control experiments, the test compounds were titrated to the buffer, and the buffer was titrated to the protein under otherwise identical conditions. The heat rates of the compound-Nurr1 LBD titrations were analyzed using NanoAnalyze software (TA Instruments, New Castle, DE) with an independent binding model.

Nurr1 = biological target: T2, Nurr1 (Homo sapiens, UniProt P43354); assay: Gal4-hybrid reporter gene assay, Nurr1; assay type: cell-based; conditions: for activity on Nurr1 (fold reporter activation vs. DMSO ctrl): 30 and 100 µM, Figure S1, mean±SD, n=3; for remain. Nurr1 activity: 30 μM; for agonist activity on Gal4-Nurr1: amide analogues
T2 construct: pFA-CMV-hNurr1-LBD; expressed in transfected cells; host or cells: HEK293T
Protocol: as §1, §2

Nurr1 homodimer = biological target: T3, Nurr1 homodimer (Homo sapiens, UniProt P43354); assay: Nurr1 LBD homodimerization assay (HTRF); assay type: biochemical; conditions: 30 μM, Tb3+-cryptate and sGFP labeled Nurr1 LBD
T3 construct: Tb^3+-cryptate labeled and sGFP-labeled Nurr1 LBD proteins; FRET acceptor consisted of sGFP-Nurr1 LBD
Protocol: (§3) To determine the molecular response of the Nurr1:RXR heterodimer on dual agonist binding, we employed homogenous time-resolved fluorescence resonance energy transfer (HTRF) based assays with labeled Nurr1 and RXR LBD proteins. Tb^3+-cryptate as streptavidin conjugate served as FRET donor and was coupled to biotinylated proteins. sGFP fusion proteins of the receptors of interest were used as FRET acceptors. Ligand effects on dimer formation were determined by titrating the sGFP-labeled dimer partner with a fixed concentration of the Tb^3+-labeled counterpart. […] The same effect was also observable for the natural product 1 (Figure S3).
(§4) Nurr1 dimerization assays (HTRF). Modulation of Nurr1 LBD homodimerization and heterodimerization of the LDBs of Nurr1 and RXRα was investigated by HTRF as reported previously4. Nurr1 LBD or RXRα LBD proteins labeled with sGFP were titrated against a fixed concentration of Tb3+-cryptate as streptavidin conjugate (Tb-SA) (610SATLF, Revvity) coupled to biotinylated Nurr1 LBD protein in the presence of test compounds at 30 µM or absence of compound as a negative control (apo). Assay solutions were prepared in buffer containing 25 mM HEPES pH 7.5, 150 mM KF, 5% (m/v) glycerol, 5 mM DTT, 0.1% (m/v) CHAPS and 1%
(§5) DMSO. The FRET donor complex was formed from biotinylated Nurr1 LBD (final concentration 0.188 nM) and Tb-SA (0.375 nM) and was kept constant. For the homodimerization assay, the FRET acceptor consisted of sGFP-Nurr1 LBD, which was titrated from 0.5 µM, while free sGFP was added to keep the total GFP content stable at 0.5 µM. […] Samples were equilibrated at room temperature for 2 h and fluorescence intensities (FI) after excitation at 340 nm were recorded at 520 nm for sGFP acceptor fluorescence and at 620 for Tb-SA donor fluorescence on a SPARK plate reader (Tecan Group Ltd.). […]
(§6) Evaluation of Nurr1-regulated gene expression. […] RNA concentration and purity were assessed using a NanoDrop One UV-vis spectrophotometer (Thermo Fisher Scientific) at 260/280 nm. […]

RXRβ = biological target: T4, RXRβ (Homo sapiens, UniProt P28702); assay: Gal4-hybrid reporter gene assay, RXRβ; assay type: cell-based; conditions: for RXRβ activity at single concentration: 30 μM
T4 construct: CMV-hRXRβ-LBD; expressed in transfected cells; host or cells: HEK293T
T4 sequence (P28702 296-529 limits assumed): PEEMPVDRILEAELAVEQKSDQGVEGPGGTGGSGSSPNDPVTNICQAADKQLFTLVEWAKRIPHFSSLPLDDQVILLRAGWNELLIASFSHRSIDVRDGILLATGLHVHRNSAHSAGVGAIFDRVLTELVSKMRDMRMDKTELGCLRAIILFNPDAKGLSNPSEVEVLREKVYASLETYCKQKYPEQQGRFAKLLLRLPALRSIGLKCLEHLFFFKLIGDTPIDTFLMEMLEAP
Protocol: as §1, §2

RXRα = biological target: T5, RXRα (Homo sapiens, UniProt P19793); assay: Gal4-hybrid reporter gene assay, RXRα; assay type: cell-based; conditions: for RXRα activity at single concentration: 30 μM
T5 construct: pFA-CMV-hRXRα-LBD; expressed in transfected cells; host or cells: HEK293T
T5 sequence (P19793 227-458 limits assumed): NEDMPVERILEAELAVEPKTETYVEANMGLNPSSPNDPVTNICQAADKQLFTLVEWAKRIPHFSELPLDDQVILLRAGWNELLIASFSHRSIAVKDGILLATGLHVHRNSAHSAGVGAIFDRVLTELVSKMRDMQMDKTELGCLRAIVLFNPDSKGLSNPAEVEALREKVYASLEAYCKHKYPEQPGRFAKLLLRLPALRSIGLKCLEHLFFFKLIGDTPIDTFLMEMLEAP
Protocol: as §1, §2

RXR = assay: Gal4 hybrid reporter gene assay, RXR (subtype not stated); assay type: cell-based; conditions: for activity on RXR (fold reporter activation vs. DMSO ctrl): 30 and 100 µM, Figure S1, mean±SD, n=3; for RXR activation: amide analogues
Protocol: as §1, §2

RXRα LBD = biological target: T6, RXRα LBD (Homo sapiens, UniProt P19793); assay: Isothermal titration calorimetry, recombinant RXRα LBD; assay type: binding; conditions: ITC
T6 construct: made in house
T6 sequence (P19793 227-458 limits assumed): T5 sequence (P19793 227-458 limits assumed)
Protocol: (§7) Isothermal titration calorimetry. ITC experiments for ligand binding to Nurr1 and RXR were conducted on an Affinity ITC instrument (TA Instruments, New Castle, DE) at 25 °C with a stirring rate of 75 rpm using recombinantly expressed ligand binding domain proteins as described previously5,6. The respective LBD protein (12–25 μM) in buffer (20 mM Tris pH 7.5, 100 mM NaCl, 5% glycerol) containing 2-4% DMSO was titrated with the test compounds (100-150 μM in the same buffer containing 2-4% DMSO) in 21–26 injections (1 × 1 μL and 20 × 4 to 25 × 4 μL) with an injection interval of 120 s. As control experiments, the test compounds were titrated to the buffer, and the buffer was titrated to the protein under otherwise identical conditions. The heat rates of the compound-Nurr1 LBD titrations were analyzed using NanoAnalyze software (TA Instruments, New Castle, DE) with an independent binding model.

Nurr1 LBD = biological target: T7, Nurr1 LBD (Homo sapiens, UniProt P43354); assay: Isothermal titration calorimetry, recombinant Nurr1 LBD; assay type: binding; conditions: ITC
T7 construct: made in house
Protocol: as §7

Nurr1:RXR heterodimer = Nurr1:RXR heterodimer (Homo sapiens, UniProt P19793+P43354); assay: Nurr1 LBD:RXRα LBD heterodimerization assay (HTRF); assay type: biochemical; conditions: 10 µM, Figure S4
Protocol: as §3, §4, §5, §6

[1] = Gal4-hybrid reporter gene assay
[2] = Gal4-hybrid reporter gene assay, mean±S.E.M., n≥3

T2 sequence (P43354 360-595 limits assumed): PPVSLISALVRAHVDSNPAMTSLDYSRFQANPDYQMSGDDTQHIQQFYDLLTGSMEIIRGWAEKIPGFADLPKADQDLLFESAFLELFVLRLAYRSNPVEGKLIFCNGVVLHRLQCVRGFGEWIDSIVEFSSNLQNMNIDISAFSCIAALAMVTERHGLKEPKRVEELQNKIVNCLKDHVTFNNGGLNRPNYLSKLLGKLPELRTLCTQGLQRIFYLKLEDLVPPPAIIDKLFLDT
T7 sequence (P43354 360-595 limits assumed): as above
Nurr1:RXR heterodimer, sequence (P43354 360-595 limits assumed, one chain of several): as the sequence (P43354 360-595 limits assumed) above
T3 sequence (P43354 360-595 limits assumed): as above

Compound | activity on RXR (fold reporter activation vs. DMSO ctrl) (RXR) | activity on Nurr1 (fold reporter activation vs. DMSO ctrl) (Nurr1) | Kd(RXRα LBD) (RXRα LBD) | RXRγ activity at single concentration (RXRγ) | RXR activation (RXR) | remain. Nurr1 activity (Nurr1; [1]) | agonist activity on Gal4-Nurr1 (Nurr1) | Kd(Nurr1 LBD) (Nurr1 LBD) | RXRβ activity at single concentration (RXRβ) | RXRα activity at single concentration (RXRα) | further results
CC1=C2[C@H](/C=C(\C)C(=O)O)CC[C@@H](C)[C@H]2CC1 [compound 1, valerenic acid] | – | – | – | – | – | – | – | – | – | – | max. act. (RXR) γ (RXRγ; [1]): 4±1 fold; EC50 (RXRγ; [2]): 43 µM; max. act. (Nurr1) (Nurr1; Gal4-hybrid reporter gene assay, max. fold activation): 1.3 fold and 1.3±0.1 fold; EC50 (Nurr1; [2]): 3 ± 1 µM; Nurr1 homodimer formation (Nurr1 homodimer): same effect; max. act. (RXR) β (RXRβ; [1]): 69±1 fold; EC50 (RXRβ; [2]): 5.2 µM; max. act. (RXR) α (RXRα; [1]): 9±1 fold; EC50 (RXRα; [2]): 27 µM
CC1=C2[C@@H]([C@H](C)CC[C@H]2/C=C(\C)C(=O)O)[C@H](O)C1 [VA-OH, hydroxy-valerenic acid, reference compound] | no activity | no activity | – | – | – | – | – | – | – | – | –
CC(=O)O[C@@H]1CC(C)=C2[C@H]1[C@H](C)CC[C@H]2/C=C(\C)C(=O)O [VA-OAc, acetoxy-valerenic acid, reference compound] | no activity | no activity | – | – | – | – | – | – | – | – | –
Cc1c2c(n(-c3ccc(CC(N)=O)cc3)c1C)CCC(F)(F)C2 [compound 4] | – | – | no binding detected | α: inactive (30 μM) β: inactive (30 μM) γ: inactive (30 μM) | failed to activate RXR | 86±9% remain. Nurr1 activity (30 μM) | lost agonist activity | no binding detected | α: inactive (30 μM) β: inactive (30 μM) γ: inactive (30 μM) | α: inactive (30 μM) β: inactive (30 μM) γ: inactive (30 μM) | –
Cc1c(C)n(-c2ccc(CC(N)=O)cc2)c2ccc(F)cc12 [compound 5] | – | – | no binding detected | α: inactive (30 μM) β: inactive (30 μM) γ: inactive (30 μM) | failed to activate RXR | 85±7% remain. Nurr1 activity (30 μM) | lost agonist activity | no binding detected | α: inactive (30 μM) β: inactive (30 μM) γ: inactive (30 μM) | α: inactive (30 μM) β: inactive (30 μM) γ: inactive (30 μM) | –
CC1(C)CCC(C)(C)c2cc(C3(c4ccc(C(=O)O)cc4)OCCO3)ccc21 [SR11237, reference compound] | – | – | – | – | – | – | – | – | – | – | Nurr1:RXR heterodimer formation (dimer strength) (Nurr1:RXR heterodimer): Diminished dimer strength
